The values that follow come from ChEMBL document CHEMBL3813632, “Thiazolo[3,2-a]benzimidazol-3(2H)-one derivatives: Structure-activity relationships of selective nucleotide pyrophosphatase/phosphodiesterase1 (NPP1) inhibitors” (Bioorg Med Chem, 2016).

Data set [1] concerns the target T1, Ectonucleotide pyrophosphatase/phosphodiesterase family member 1 (Homo sapiens) (UniProt P22413).
T1 sequence (whole entry): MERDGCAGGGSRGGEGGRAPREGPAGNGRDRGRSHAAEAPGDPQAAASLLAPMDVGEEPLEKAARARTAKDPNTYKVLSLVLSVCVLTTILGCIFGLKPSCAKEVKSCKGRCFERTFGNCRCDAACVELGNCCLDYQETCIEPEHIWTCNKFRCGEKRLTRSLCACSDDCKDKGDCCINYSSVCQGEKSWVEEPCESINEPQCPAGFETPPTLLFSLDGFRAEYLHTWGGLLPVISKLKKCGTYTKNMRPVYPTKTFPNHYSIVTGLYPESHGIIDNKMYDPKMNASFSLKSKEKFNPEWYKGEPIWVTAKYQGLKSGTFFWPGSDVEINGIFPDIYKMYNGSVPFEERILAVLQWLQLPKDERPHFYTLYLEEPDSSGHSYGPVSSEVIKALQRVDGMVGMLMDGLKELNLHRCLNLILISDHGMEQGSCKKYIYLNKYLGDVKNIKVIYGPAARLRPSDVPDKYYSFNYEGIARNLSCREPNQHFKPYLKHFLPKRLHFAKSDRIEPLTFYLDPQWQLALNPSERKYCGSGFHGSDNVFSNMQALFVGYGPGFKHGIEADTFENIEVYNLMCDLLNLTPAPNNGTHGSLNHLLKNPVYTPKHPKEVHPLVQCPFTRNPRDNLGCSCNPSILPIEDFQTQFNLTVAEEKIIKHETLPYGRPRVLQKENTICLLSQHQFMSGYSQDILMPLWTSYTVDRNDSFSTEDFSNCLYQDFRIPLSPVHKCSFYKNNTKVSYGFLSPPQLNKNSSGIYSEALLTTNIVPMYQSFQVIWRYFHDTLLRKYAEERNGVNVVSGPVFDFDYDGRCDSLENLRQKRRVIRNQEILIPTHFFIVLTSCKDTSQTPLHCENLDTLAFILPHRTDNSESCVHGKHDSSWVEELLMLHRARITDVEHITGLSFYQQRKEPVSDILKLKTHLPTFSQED
In words: Uncompetitive inhibition of human recombinant NPP1 expressed in insect SF9 cells using ATP as substrate up to 2.8 uM preincubated with substrate followed by protein addition and subsequent incubation for 30 mins by Hanes-Woolf plot analysis.

The target of data set [2] is Autotaxin (Homo sapiens) (UniProt Q13822). In words: Inhibition of human recombinant NPP2 expressed in insect SF9 cells using 1-oleoylsn-glycero-3-phosphocholine as substrate at >100 uM preincubated with substrate followed by protein addition and subsequent incubation for 60 mins by colorimetric analysis.
The target of data set [3] is T2, Ectonucleoside triphosphate diphosphohydrolase 2 (Homo sapiens) (UniProt Q9Y5L3).
T2 sequence (whole entry): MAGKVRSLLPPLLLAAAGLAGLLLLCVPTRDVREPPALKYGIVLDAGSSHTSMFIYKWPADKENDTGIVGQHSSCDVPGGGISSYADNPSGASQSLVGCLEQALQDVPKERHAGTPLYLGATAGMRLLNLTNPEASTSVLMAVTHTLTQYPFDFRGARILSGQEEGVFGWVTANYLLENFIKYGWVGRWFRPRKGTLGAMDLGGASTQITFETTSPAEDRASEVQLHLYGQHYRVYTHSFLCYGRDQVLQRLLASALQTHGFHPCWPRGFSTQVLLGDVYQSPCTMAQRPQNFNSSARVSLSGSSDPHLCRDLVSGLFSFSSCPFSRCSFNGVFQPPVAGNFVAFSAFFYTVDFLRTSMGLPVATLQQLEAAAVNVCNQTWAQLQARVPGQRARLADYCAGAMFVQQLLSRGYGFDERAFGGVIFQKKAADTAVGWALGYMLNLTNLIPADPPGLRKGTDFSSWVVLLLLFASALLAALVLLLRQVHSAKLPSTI
As to the kind of experiment: Inhibition of human recombinant NTPDase2 expressed in CHO cells using ATP as substrate at 10 to 1000 uM preincubated with substrate followed by protein addition and subsequent incubation for 30 mins by capillary electrophoresis.

Data set [4] is filed under the species Homo sapiens. In words: Selectivity ratio of Ki for human recombinant NPP3 to Ki for human recombinant NPP1.
For data set [5], the species on record is Homo sapiens. In words: Selectivity ratio of Ki for human recombinant TNAP to Ki for human recombinant NPP1.
The target of data set [6] is T3, Ectonucleoside triphosphate diphosphohydrolase 1 (Homo sapiens) (UniProt P49961).
T3 sequence (whole entry): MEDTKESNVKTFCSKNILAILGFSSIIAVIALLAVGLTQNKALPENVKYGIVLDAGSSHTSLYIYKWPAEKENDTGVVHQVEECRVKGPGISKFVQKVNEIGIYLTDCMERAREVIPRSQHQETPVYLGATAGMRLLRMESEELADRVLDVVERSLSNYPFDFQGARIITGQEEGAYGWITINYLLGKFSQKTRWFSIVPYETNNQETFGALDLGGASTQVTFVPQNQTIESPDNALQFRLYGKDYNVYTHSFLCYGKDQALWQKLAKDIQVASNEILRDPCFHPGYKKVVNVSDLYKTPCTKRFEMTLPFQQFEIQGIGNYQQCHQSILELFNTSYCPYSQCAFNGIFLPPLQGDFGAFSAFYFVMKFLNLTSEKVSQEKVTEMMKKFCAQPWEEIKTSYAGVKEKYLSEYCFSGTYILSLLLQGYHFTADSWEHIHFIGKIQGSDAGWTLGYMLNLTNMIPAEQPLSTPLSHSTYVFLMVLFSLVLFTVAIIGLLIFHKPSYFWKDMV
As to the kind of experiment: Inhibition of human recombinant soluble NTPDase1 expressed in CHO cells using ATP as substrate at 10 to 1000 uM preincubated with substrate followed by protein addition and subsequent incubation for 30 mins by capillary electrophoresis.

The nature of data set [7]: Chemical stability of the compound assessed as compound remaining at pH 9 at 37 degC after 24 hrs by HPLC-MS analysis. In kind it is physicochemical. Conditions: buffer, read-out: Stability.
Data set [8] can be described thus: Chemical stability of the compound at pH 9 at 25 degC after 8 hrs by HPLC-MS analysis. In kind it is physicochemical. The settings on record: buffer, pH 9, 8 h.
A short description of data set [9]: Chemical stability of the compound assessed as compound remaining at pH 9 at 37 degC after 8 hrs by HPLC-MS analysis. In kind it is physicochemical. Conditions: buffer, read-out: Stability.

Structures are written as SMILES. Active and inactive are the calls of the source. The calls are words filed in the database; no cut-off is given here.

Consider `O=c1/c(=C/c2ccc(I)o2)sc2nc3ccccc3n12`, for which the inhibition result in data set [1] and in [2] was “Active” throughout. The inhibition entry in [3] and in data set [6] was “inactive” throughout. The Ratio Ki in data set [4] and in data set [5] was 1000 throughout. Besides, the remaining at 24 h in data set [7] is 27.4%. For the same molecule, the Stability result in data set [8] is “Stable”. For the same molecule, the remaining at 8 h in data set [9] was found to be 70.5%.
